Key:
[1] = test system: EGF receptors exposed on KB cells; assay: competitive radioimmunoassay with 125I 108 monoclonal antibody on KB cells; format: binding, human
Experimental: The cells were then washed, solubilized in 0.5N NaOH and their radioactivity was determined in a counter (Kontron, Switzerland). Non-specific binding was determined by the addition of 100-fold excess of unlabelled monoclonal antibody.

KB cells = assay: colony inhibition assay of KB cells; format: cell-based, human
Experimental: KB cells were seeded in petri dishes (50×15 mm^2, NUNC) at a concentration of 2×10^2 cells per dish. […] On the sixth day cultures were fed with fresh medium containing the above ingredients. On the 15th day the cultures were washed with PBS, fixed with 4% v/v formaldehyde in PBS for 15 min. and stained with hematoxylin. Number of formed colonies (25 cells) was then determined.

## epidermal growth factor [EGF]
[1]
  maximal level of competition with binding of the antibody to the receptor: about 70%
KB cells; EGF
  size of KB cell colonies: increase in the size of KB cell colonies
KB cells; EGF 160 nM, 15 days after seeding
  number of colonies compared to cells incubated in absence of growth factor: 150%
